These are literature values, as cited in patent publication US12018199B2, “Fire retardant and fire blocking composition for use in forest fires, and method of making same” (priority 2020, dated 2024).

Molecules are shown by their SMILES. Read-outs that look alike come from different tables or passages of the source.

For the data set the following is noted: in water.

For the compound `NC(N)=O` [Urea, urea], the Solubility was 66.7 g/100 g of water (0 °C); 108 g/100 g of water (20 °C); 167 g/100 g of water (40 °C); 251 g/100 g of water (60 °C); 400 g/100 g of water (80 °C); 733 g/100 g of water (100 °C).
